Test results as given in ChEMBL document CHEMBL6096703 (J Med Chem, 2025).

How the values were obtained:
MDA-MB-436 [1] = test: Antiproliferative activity against human MDA-MB-436 cells assessed as reduction in cell viability incubated for 7 days by CCK-8 assay; assay type: functional, cell-based; settings: MDA-MB-436, 168 h
[2] = target: T1, Poly [ADP-ribose] polymerase 2 (Homo sapiens, UniProt Q9UGN5); test: Inhibition of PARP2 (unknown origin) at 1 uM preincubated with compound for 10 mins followed by DNA and NAD+ addition and measured after 60 mins by chemiluminescence based envision reader analysis relative to control; settings: time 70.0 min
[3] = target: T2, Poly [ADP-ribose] polymerase 1 (Homo sapiens, UniProt P09874); test: Inhibition of PARP1 (unknown origin) at 1 nM preincubated with compound for 10 mins followed by DNA and NAD+ addition and measured after 60 mins by chemiluminescence based envision reader analysis relative to control; settings: time 70.0 min
MDA-MB-436 [4] = test: Antiproliferative activity against human MDA-MB-436 cells assessed as inhibition of cell proliferation at 100 nM incubated for 7 days by CCK-8 assay relative to control; assay type: functional; settings: MDA-MB-436, 168 h, time 7 day
[5] = target: T2, Poly [ADP-ribose] polymerase 1; test: Inhibition of PARP1 (unknown origin) preincubated with compound for 10 mins followed by DNA and NAD+ addition and measured after 60 mins by chemiluminescence based envision reader analysis
[6] = target: T1, Poly [ADP-ribose] polymerase 2; test: Inhibition of PARP2 (unknown origin) preincubated with compound for 10 mins followed by DNA and NAD+ addition and measured after 60 mins by chemiluminescence based envision reader analysis
[7] = Cmax in male Balb/c mouse at 1 mg/kg, po measured upto 96 hrs by LC-MS/MS analysis; assay type: ADME, organism-based; settings: in vivo
[8] = Half life in male Balb/c mouse at 1 mg/kg, po measured upto 96 hrs by LC-MS/MS analysis; assay type: ADME, organism-based; settings: male, Balb/c, in vivo
[9] = Clearance in male Balb/c mouse at 1 mg/kg, po measured upto 96 hrs by LC-MS/MS analysis; assay type: ADME, organism-based; settings: male, Balb/c, in vivo
[10] = AUC(0 to t) in male Balb/c mouse at 1 mg/kg, po measured upto 96 hrs by LC-MS/MS analysis; assay type: ADME, organism-based; settings: male, Balb/c, in vivo

T1 sequence (Q9UGN5 whole entry): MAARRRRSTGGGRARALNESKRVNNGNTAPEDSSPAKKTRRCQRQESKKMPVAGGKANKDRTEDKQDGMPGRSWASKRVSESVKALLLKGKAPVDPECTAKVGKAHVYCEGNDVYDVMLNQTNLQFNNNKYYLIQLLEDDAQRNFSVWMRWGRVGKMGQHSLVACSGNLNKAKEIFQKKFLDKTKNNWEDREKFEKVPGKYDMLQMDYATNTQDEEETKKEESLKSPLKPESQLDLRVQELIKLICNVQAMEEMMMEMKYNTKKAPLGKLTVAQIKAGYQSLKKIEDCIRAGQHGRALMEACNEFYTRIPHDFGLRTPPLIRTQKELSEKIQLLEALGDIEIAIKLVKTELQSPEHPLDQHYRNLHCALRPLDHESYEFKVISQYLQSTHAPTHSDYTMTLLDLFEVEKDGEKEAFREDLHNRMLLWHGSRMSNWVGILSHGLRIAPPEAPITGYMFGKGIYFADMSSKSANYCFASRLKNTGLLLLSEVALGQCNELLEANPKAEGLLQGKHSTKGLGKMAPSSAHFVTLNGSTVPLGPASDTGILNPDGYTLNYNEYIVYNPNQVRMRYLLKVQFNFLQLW
T2 sequence (P09874 whole entry): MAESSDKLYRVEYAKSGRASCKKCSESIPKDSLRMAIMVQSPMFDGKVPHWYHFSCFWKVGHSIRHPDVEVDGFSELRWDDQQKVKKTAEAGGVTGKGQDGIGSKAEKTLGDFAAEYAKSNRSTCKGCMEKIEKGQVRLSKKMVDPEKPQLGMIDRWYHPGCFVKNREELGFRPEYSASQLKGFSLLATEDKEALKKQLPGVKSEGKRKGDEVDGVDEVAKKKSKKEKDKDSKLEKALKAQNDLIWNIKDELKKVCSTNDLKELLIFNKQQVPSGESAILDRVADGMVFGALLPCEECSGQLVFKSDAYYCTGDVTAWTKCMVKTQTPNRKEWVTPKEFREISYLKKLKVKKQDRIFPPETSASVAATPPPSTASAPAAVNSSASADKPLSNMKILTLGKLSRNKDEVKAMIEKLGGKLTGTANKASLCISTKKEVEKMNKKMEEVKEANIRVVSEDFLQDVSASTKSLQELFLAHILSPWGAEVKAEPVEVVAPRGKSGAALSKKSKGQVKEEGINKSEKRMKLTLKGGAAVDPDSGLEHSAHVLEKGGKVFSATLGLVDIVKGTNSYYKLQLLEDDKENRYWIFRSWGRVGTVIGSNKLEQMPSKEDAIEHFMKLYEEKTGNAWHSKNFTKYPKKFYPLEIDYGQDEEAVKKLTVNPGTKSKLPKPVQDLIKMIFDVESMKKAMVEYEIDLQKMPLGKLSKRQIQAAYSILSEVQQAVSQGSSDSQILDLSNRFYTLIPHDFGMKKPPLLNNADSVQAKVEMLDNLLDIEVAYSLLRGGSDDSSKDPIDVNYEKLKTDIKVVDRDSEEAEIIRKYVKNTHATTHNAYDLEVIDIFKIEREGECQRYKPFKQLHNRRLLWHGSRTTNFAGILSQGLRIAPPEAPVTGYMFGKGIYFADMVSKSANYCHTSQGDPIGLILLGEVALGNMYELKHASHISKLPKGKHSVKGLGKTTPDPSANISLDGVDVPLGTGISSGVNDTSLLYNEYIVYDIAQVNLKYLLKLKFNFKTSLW

Row | Structure (SMILES) | IC50 (MDA-MB-436 [1]) [nM] | inhibition [3] [%] | inhibition at 0.1 µM (MDA-MB-436 [4]) [%] | further results
1 | CCc1cc2ncc(CN3CCN(c4ccc(C(=O)NC)nc4F)CC3)c(F)c2[nH]c1=O | 43.1 |  |  | 
2 | CCc1cc2ncc(CN3CC=C(c4ccc(C(F)(F)F)nc4)CC3)cc2[nH]c1=O |  | 56.9 | -4.1 | inhibition [2]: 82.3%
3 | CCc1cc2ncc(CN3CC=C(c4ncccc4C(=O)NC)CC3)cc2[nH]c1=O |  | 15 | 26.7 | 
4 | CNC(=O)c1ccc(N2CCN(Cc3cnc4cc(C)c(=O)[nH]c4c3)CC2)c(F)n1 | 114 | 75 |  | inhibition [2]: 98.3%; IC50 [5]: 0.32 nM; IC50 [6]: 19 nM
5 | CCc1cc2ncc(CN3CC=C(c4ccc(C)cc4F)CC3)cc2[nH]c1=O |  | 61.7 | 5 | inhibition [2]: 75.4%
6 | CCc1cc2ncc(CN3CC=C(c4ccc(C#N)s4)CC3)cc2[nH]c1=O |  | 46.2 | 45 | 
7 | CCc1cc2ncc(CN3CC=C(c4cc(F)c(C#N)cn4)CC3)cc2[nH]c1=O | 2.8 | 88.6 |  | inhibition [2]: 87.4%; IC50 [5]: 0.28 nM; IC50 [6]: 130 nM; Cmax [7]: 3020 ng/mL; half-life [8]: 5.26 h; CL/F [9]: 1 mL/min/kg; AUC(0-t) at 96 h [10]: 16400 ng·h/mL
8 | CCc1cc2ncc(CN3CCN(c4cc(F)c(C#N)cn4)CC3)cc2[nH]c1=O | 1.9 |  |  | Cmax [7]: 2250 ng/mL; half-life [8]: 6.3 h; CL/F [9]: 1 mL/min/kg; AUC(0-t) at 96 h [10]: 16000 ng·h/mL
9 | CCc1nc2ccc(CN3CCN(c4ccc(C(=O)NC)nc4F)CC3)c(F)c2[nH]c1=O | 87.1 |  |  | 
10 | CNC(=O)c1ccc(N2CCN(Cc3cnc4cc(C5CC5)c(=O)[nH]c4c3)CC2)c(F)n1 | 4.1 |  |  | 
11 | CCc1cc2ncc(CN3CC=C(c4ccncc4C#N)CC3)cc2[nH]c1=O |  | 13.7 | 9.8 | 
12 | CCc1cc2ncc(CN3CC=C(c4cc(F)c(C#N)c(F)c4)CC3)cc2[nH]c1=O | 16.3 | 31.3 | 51.9 | 
13 | CCc1cc2ncc(CN3CC=C(c4ccc(N)nc4)CC3)cc2[nH]c1=O |  | 10 | 31.1 | 
14 | CCc1cc2ncc(CN3CCN(c4ccc(C(=O)NC)nc4F)CC3)cc2[nH]c1=O | 2.8 | 95.2 |  | inhibition [2]: 93.8%; IC50 [5]: 0.65 nM; IC50 [6]: 88 nM
15 | CCc1cc2ncc(CN3CC=C(c4ncc(C(=O)NC)nc4C)CC3)cc2[nH]c1=O |  | 77.2 | 41.1 | inhibition [2]: 85.4%
16 | CCc1cc2ncc(CN3CC=C(c4cnc(C#N)cn4)CC3)cc2[nH]c1=O |  | 45.8 | 47.5 | 
17 | CCc1cc2ncc(CN3CC=C(c4ccc(OC)nc4C)CC3)cc2[nH]c1=O |  | 40.9 | 24 | 
18 | CCc1cc2ncc(CN3CC=C(c4ccc(C#N)c(F)c4F)CC3)cc2[nH]c1=O |  | 54.7 | 45.1 | 
19 | CCc1cc2ncc(CN3CC=C(c4ccc(C#N)cc4F)CC3)cc2[nH]c1=O | 5.3 | 96.9 |  | inhibition [2]: 92.3%; IC50 [5]: 0.17 nM; IC50 [6]: 62 nM
20 | CCc1cc2ncc(CN3CC=C(c4ncccc4C#N)CC3)cc2[nH]c1=O |  | -9.3 | 5.9 | 

Row | Structure (SMILES) | IC50 (MDA-MB-436 [1]) [nM] | inhibition [3] [%] | inhibition at 0.1 µM (MDA-MB-436 [4]) [%] | further results
21 | CCc1cc2ncc(CN3CCN(c4ccc(C#N)cc4F)CC3)cc2[nH]c1=O | 4.1 |  |  | 
22 | CCc1cc2ncc(CN3CC=C(c4c(F)cc(C#N)cc4F)CC3)cc2[nH]c1=O |  | 10.5 | 16.3 | 
23 | CCc1cc2ncc(CN3CC=C(c4cnc5ccnn5c4)CC3)cc2[nH]c1=O |  | 46.3 | 13.6 | 
24 | CCc1cc2ncc(CN3CC=C(c4ccccc4C#N)CC3)cc2[nH]c1=O |  | 51.6 | 44.8 | 
25 | CCc1cc2ncc(CN3CC=C(c4cccnc4N)CC3)cc2[nH]c1=O |  | 56.5 | 14.4 | 
26 | CCc1cc2ncc(CN3CC=C(c4cc(F)c(C)c(F)c4)CC3)cc2[nH]c1=O |  | 27.5 | 22.2 | 
27 | CCc1cc2ncc(CN3CC=C(c4ccc(C#N)cc4)CC3)cc2[nH]c1=O |  | 75.6 | 37.9 | inhibition [2]: 91.7%
28 | CCc1cc2ncc(CN3CC=C(c4cnc(C(=O)NC)nc4)CC3)cc2[nH]c1=O | 29.1 | 47.1 | 52.6 | 
29 | CCc1cc2ncc(CN3CC=C(c4ccc(C(=O)NC)nc4OC)CC3)cc2[nH]c1=O |  | 38.8 | 31.3 | 
30 | CCc1cc2ncc(CN3CCN(c4ccc([N+](=O)[O-])cc4F)CC3)cc2[nH]c1=O | 1.8 |  |  | 
31 | CCc1cc2ncc(CN3CC=C(c4ccc([N+](=O)[O-])cc4F)CC3)cc2[nH]c1=O | 25.7 | 72.1 |  | inhibition [2]: 98.1%; IC50 [5]: 0.47 nM; IC50 [6]: 37 nM
32 | CCc1cc2ncc(CN3CC=C(c4ccc(C(=O)NC)c(F)c4F)CC3)cc2[nH]c1=O |  | 46.1 | 16.1 | 
33 | CCc1cc2ncc(CN3CC=C(c4cnccc4C(=O)NC)CC3)cc2[nH]c1=O |  | 7.4 | 18.5 | 
34 | CCc1cc2ncc(CN3CC=C(c4cnc(F)c(F)c4)CC3)cc2[nH]c1=O |  | 72.3 | 37.7 | inhibition [2]: 77.3%
35 | CCc1cc2ncc(CN3CC=C(c4ncc(C#N)cc4C)CC3)cc2[nH]c1=O |  | 15.9 | -10.9 | 
36 | CCc1cc2ncc(CN3CC=C(c4ccc(C(=O)NC)nc4N)CC3)cc2[nH]c1=O |  | 27.2 | 19.5 | 
37 | CCc1cc2ncc(CN3CC=C(c4ccc(F)c(C)c4)CC3)cc2[nH]c1=O |  | 46.6 | 30.2 | 
38 | CCc1cc2ncc(CN3CC=C(c4ccc(C)c(F)c4)CC3)cc2[nH]c1=O |  | 54.4 | 28.2 | 
39 | CCc1cc2ncc(CN3CC=C(c4ccc(F)cn4)CC3)cc2[nH]c1=O | 6.5 | 91.4 |  | inhibition [2]: 93.9%; IC50 [5]: 0.28 nM; IC50 [6]: 65 nM
40 | CCc1cc2ncc(CN3CC=C(c4cc(C)c(F)c(C)c4)CC3)cc2[nH]c1=O |  | -3.8 | 23.6 | 
